Assay results: patent US8431557B2, “Treatment of menopause-associated symptoms” (Besins Healthcare Luxembourg SARL, priority 2006, dated 2013)

What was measured:
menopausal women [1] = assay: Placebo-controlled study: moderate to severe symptom of vulvar and vaginal atrophy; type: in vivo, human (women)
Procedure: (§1) This study was a multi-centred, double-blind, placebo-controlled, parallel group comparison. A total of 351 subjects were enrolled at 78 sites in the United States.
(§2) A two-week, medication free, Pre-Treatment Phase was used to determine subject vasomotor symptoms. Efficacy assessments included the number and intensity of hot flushes per day, and severity of vulvar and vaginal atrophy symptoms.
(§3) The three treatment groups comprised the following dosages: • A 0.375 mg dose (1.25 g of gel @ 0.03%) applied to one arm and 0.9 g of placebo gel applied on the other arm once daily for 12 weeks; • A 0.27 mg dose (0.9 g of gel @ 0.03%) applied to one arm and 1.25 g of placebo gel applied on the other arm once daily for 12 weeks; and • 0.9 g of placebo gel applied to one arm and 1.25 g of placebo gel applied on the other arm once daily for 12 weeks.
(§4) The Treatment Phase was 12 weeks. A pre-treatment period of 2 weeks was used to initially evaluate each subject's vasomotor symptoms.
(§5) All data were analyzed using the approach of Observed Cases (OC).
(§6) For all continuous primary and secondary efficacy parameters, descriptive statistics tables and 2-way ANCOVA with fixed factors treatment and centre, and baseline value as covariate were provided. The interaction of treatment and centre was investigated using 2-way ANCOVA with fixed factors treatment, centre, and treatment-by-centre interaction with baseline value as covariate. To control the Type-I error rate, a step-down procedure using contrasts was performed to compare each treatment group to the placebo group. First, the group with the 0.375 mg dose was compared against placebo at the α=0.05 level (2-sided). If the null hypothesis was rejected, the group with the 0.27 mg dose was compared to placebo at the α=0.05 level (2-sided). Graphs were used to characterize the dose response. If the assumptions of the model were not met, then van Elteren's test with centre as the stratification variable was used in the step-down procedure. For categorical data, Fisher's exact test was used to compare treatment groups.
(§7) The study assessed the following variables: • Mean change in frequency of moderate to severe vasomotor symptoms from baseline to Week 4; • Mean change in frequency of moderate to severe vasomotor symptoms from baseline to Week 12; • Mean change in severity of moderate to severe vasomotor symptoms from baseline to Week 4; • Mean change in severity of moderate to severe vasomotor symptoms from baseline to Week 12; • Mean change in frequency of moderate-to-severe hot flushes at each week; • Mean change in severity of moderate-to-severe hot flushes at each week; • Mean change from baseline to Week 12 in the moderate to severe symptom of vulvar and vaginal atrophy that has been identified by the subject as being the most bothersome to her (vaginal pain, dryness, irritation/itching, bleeding, dysuria);
The severity of symptoms of vulvar and vaginal atrophy (vaginal pain associated with sexual activity, dryness, irritation/itching, bleeding associated with sexual activity, or dysuria) that was identified by the subject as moderate to severe and most bothersome was assessed at Week 1, Week 12, or Early Termination using the following rating scale: […]

menopausal women [2] = assay: Placebo-controlled study: frequency of moderate to severe hot flushes; type: in vivo, human (women); set-up: key to Frequency of Moderate to Severe Hot Flushes, Mean Change from Baseline / Frequency of Moderate to Severe Hot Flushes, Mean: number of moderate-to-severe hot flushes per day; conditions: for Frequency of Moderate to Severe Hot Flushes, Mean: Baseline, daily average
Procedure: as §1, §2, §3, §4, §5, §6, §7
The baseline value was defined as the daily average of moderate to severe hot flushes during the 2 Pre-Treatment Phase weeks. The “daily average” was calculated from “the mean across the reported days at each week or at Pre-Treatment Phase weeks. If only mild hot flushes were reported on any day, the moderate to severe hot flush value for the subject on that day was zero. If less than 10 days of data were available for the baseline period, the baseline daily average was considered missing.
On a daily basis, the subject recorded the number of hot flushes and rated the intensity of each based on a four-point scale as follows: • 0 (none) • 1 (mild) Sensation of heat without perspiration • 2 (moderate) Sensation of heat with perspiration, but the subject was able to continue with their activity • 3 (severe) Sensation of heat with sweating, sufficiently severe to result in discontinuation of activity Assessment of Vulvar and Vaginal Atrophy Symptom Severity

[3] = 0.27 mg dose (N = 115), Endpoint
[4] = 0.375 mg dose (N = 114), Baseline
[5] = 0.375 mg dose (N = 114), Endpoint

## C[C@]12CC[C@@H]3c4ccc(O)cc4CC[C@H]3[C@@H]1CC[C@@H]2O [estradiol, 17-beta estradiol]
Menopausal women [1]; [3]
  Symptom of Vulvar and Vaginal Atrophy, percent of subjects rated Mild: (13.0%)
  Symptom of Vulvar and Vaginal Atrophy, percent of subjects rated Moderate: (8.7%)
  Symptom of Vulvar and Vaginal Atrophy, percent of subjects rated None: (5.2%)
  Symptom of Vulvar and Vaginal Atrophy, percent of subjects rated Severe: (4.3%)
Menopausal women [1]; 0.375 mg dose
  Improvement in moderate to severe symptoms of vulvar and vaginal atrophy: statistically significant improvement
Menopausal women [1]; [4]
  Symptom of Vulvar and Vaginal Atrophy, number of subjects rated Moderate: 26
  Symptom of Vulvar and Vaginal Atrophy, number of subjects rated Severe: 18
  Symptom of Vulvar and Vaginal Atrophy, percent of subjects rated Moderate: (22.8%)
  Symptom of Vulvar and Vaginal Atrophy, percent of subjects rated Severe: (15.8%)
Menopausal women [1]; [5]
  Symptom of Vulvar and Vaginal Atrophy, number of subjects rated Mild: 17
  Symptom of Vulvar and Vaginal Atrophy, number of subjects rated Moderate: 9
  Symptom of Vulvar and Vaginal Atrophy, number of subjects rated None: 10
  Symptom of Vulvar and Vaginal Atrophy, number of subjects rated Severe: 6
  Symptom of Vulvar and Vaginal Atrophy, percent of subjects rated Mild: (14.9%)
  Symptom of Vulvar and Vaginal Atrophy, percent of subjects rated Moderate: (7.9%)
  Symptom of Vulvar and Vaginal Atrophy, percent of subjects rated None: (8.8%)
  Symptom of Vulvar and Vaginal Atrophy, percent of subjects rated Severe: (5.3%)
Menopausal women [2]; 0.27 mg dose
  Week at which statistical significance vs placebo was achieved, frequency of moderate to severe hot flushes: 4 Week
  Frequency of Moderate to Severe Hot Flushes, Mean: 11.73
Menopausal women [2]; 0.27 mg dose, Week 1
  Frequency of Moderate to Severe Hot Flushes, Mean Change from Baseline: −1.05
Menopausal women [2]; 0.27 mg dose, Week 2
  Frequency of Moderate to Severe Hot Flushes, Mean Change from Baseline: −2.97
Menopausal women [2]; 0.27 mg dose, Week 3
  Frequency of Moderate to Severe Hot Flushes, Mean Change from Baseline: −4.08
Menopausal women [2]; 0.27 mg dose, Week 4
  Frequency of Moderate to Severe Hot Flushes, Mean Change from Baseline: −4.63
Menopausal women [2]; 0.27 mg dose, Week 5
  Frequency of Moderate to Severe Hot Flushes, Mean Change from Baseline: −5.20
Menopausal women [2]; 0.27 mg dose, Week 6
  Frequency of Moderate to Severe Hot Flushes, Mean Change from Baseline: −5.62
Menopausal women [2]; 0.27 mg dose, Week 7
  Frequency of Moderate to Severe Hot Flushes, Mean Change from Baseline: −6.02
Menopausal women [2]; 0.27 mg dose, Week 8
  Frequency of Moderate to Severe Hot Flushes, Mean Change from Baseline: −6.02
Menopausal women [2]; 0.27 mg dose, Week 9
  Frequency of Moderate to Severe Hot Flushes, Mean Change from Baseline: −6.24
Menopausal women [2]; 0.27 mg dose, Week 10
  Frequency of Moderate to Severe Hot Flushes, Mean Change from Baseline: −6.29
Menopausal women [2]; 0.27 mg dose, Week 11
  Frequency of Moderate to Severe Hot Flushes, Mean Change from Baseline: −6.29
Menopausal women [2]; 0.27 mg dose, Week 12
  Frequency of Moderate to Severe Hot Flushes, Mean Change from Baseline: −6.19
Menopausal women [2]; 0.375 mg dose
  Week at which statistical significance vs placebo was achieved, frequency of moderate to severe hot flushes: 2 Week
  Frequency of Moderate to Severe Hot Flushes, Mean: 12.50
Menopausal women [2]; 0.375 mg dose, Week 1
  Frequency of Moderate to Severe Hot Flushes, Mean Change from Baseline: −1.93
Menopausal women [2]; 0.375 mg dose, Week 2
  Frequency of Moderate to Severe Hot Flushes, Mean Change from Baseline: −4.36
Menopausal women [2]; 0.375 mg dose, Week 3
  Frequency of Moderate to Severe Hot Flushes, Mean Change from Baseline: −5.73
Menopausal women [2]; 0.375 mg dose, Week 4
  Frequency of Moderate to Severe Hot Flushes, Mean Change from Baseline: −6.91
Menopausal women [2]; 0.375 mg dose, Week 5
  Frequency of Moderate to Severe Hot Flushes, Mean Change from Baseline: −7.56
Menopausal women [2]; 0.375 mg dose, Week 6
  Frequency of Moderate to Severe Hot Flushes, Mean Change from Baseline: −7.83
Menopausal women [2]; 0.375 mg dose, Week 7
  Frequency of Moderate to Severe Hot Flushes, Mean Change from Baseline: −8.05
Menopausal women [2]; 0.375 mg dose, Week 8
  Frequency of Moderate to Severe Hot Flushes, Mean Change from Baseline: −8.49
Menopausal women [2]; 0.375 mg dose, Week 9
  Frequency of Moderate to Severe Hot Flushes, Mean Change from Baseline: −8.69
Menopausal women [2]; 0.375 mg dose, Week 10
  Frequency of Moderate to Severe Hot Flushes, Mean Change from Baseline: −8.47
Menopausal women [2]; 0.375 mg dose, Week 11
  Frequency of Moderate to Severe Hot Flushes, Mean Change from Baseline: −8.81
Menopausal women [2]; 0.375 mg dose, Week 12
  Frequency of Moderate to Severe Hot Flushes, Mean Change from Baseline: −8.76
Menopausal women [2]; 0.375 mg dose, Weeks 4 and 12, all 4 criteria
  Efficacy vs. placebo, frequency and severity of moderate to severe hot flushes: efficacious vs. placebo
